# Experimental data taken from patent US11896586B2, “Apixaban formulations” (Bristol-Myers Squibb Company, priority 2018, dated 2024).
# Test: Dissolution of apixaban in SLD coating solvent, monitored in situ by UV probe
# Type: physicochemical
# Method: Three aliquots of ethanol were dispensed. Apixaban was added to the first portion (1464 g) with stirring. This suspension was then added to a 20 L mixing vessel. To ensure complete API transfer, the remaining aliquots of ethanol (two aliquots of approximately 2600 g each) were used to rinse the suspension container surfaces and were subsequently added to the 20 L mixing vessel in step-wise fashion. The apixaban/ethanol solution was stirred using an overhead mixer at approximately 500 rpm for 50 minutes. Dissolution of apixaban in ethanol was monitored in-situ using a UV probe (absorbance range 278-282 nm, 2 mm tip opening, measure rate 1 s^−1).
smiles,measurement,setting,value
"COc1ccc(-n2nc(C(N)=O)c3c2C(=O)N(c2ccc(N4CCCCC4=O)cc2)CC3)cc1 [apixaban, 1-(4-methoxyphenyl)-7-oxo-6-[4-(2-oxo-1-piperidinyl)phenyl]-4,5,6,7-tetrahydro-1H-pyrazolo[3,4-c]pyridine-3-carboxamide]",Time to full dissolution of apixaban,"ethanol, measured at 0.15 mgA/mL, UV 278-282 nm",less than 10 minutes
same,Time to full dissolution of apixaban,"ethanol/water/HPMC solution, apparent concentration 0.21 mgA/g, UV 280 nm",less than 10 minutes
